Assay results reported in US11571416B2, “Amodiaquine analogs and methods of uses thereof” (priority 2017, dated 2023).

Columns and labels:
[1] = tested on: EBOV-GFP (recombinant Ebolavirus encoding a GFP reporter gene); assay: microbe, parasite or virus in culture; assay type: cell-based; details: for IC50: Orthoebolavirus
[2] = Cytotoxicity, CellTiter-Glo Luminescent Cell Viability Assay; details: human, Huh7 cells

SMILES	antiviral activity / potency in words [1]	IC50 ([1]; Huh-7, 24 h) [µM]	fold potency relative to amodiaquine [1] [fold]	CC50 at 24 h [2] [µM]	Selectivity index [1]	IC50 ([1]; Huh-7) [µM]
C#CCN(CC#C)Cc1cc(Nc2ccnc3cc(Cl)ccc23)ccc1O [Compound 1, 4-(7-chloroquinolin-4-ylamino)-2-bis(2-propyne-1-yl)aminomethylphenol]	reduced antiviral activity	5.78 ± 1.49	–	–	–	–
CCN(CC)Cc1cc(Nc2ccnc3cc(C(F)(F)F)ccc23)ccc1O [Compound 2]	–	5.87 ± 1.46	–	–	–	–
CN(Cc1cc(Nc2ccnc3cc(Cl)ccc23)ccc1O)c1ccccc1 [Compound 3]	reduced antiviral activity	6.39 ± 0.93	–	–	–	–
CCN(CC)Cc1cc(Nc2ccnc3cc(Br)ccc23)ccc1O [Compound 4, 4-(7-bromoquinolin-4-ylamino)-2-diethylamino-methylphenol]	–	1.55 ± 0.14	1.4	–	–	–
CCN(CC)Cc1cc(Nc2ccnc3cc(F)ccc23)ccc1O [Compound 5, 4-(7-fluoroquinolin-4-ylamino)-2-diethylaminomethylphenol]	weaker than amiodiaquine	2.78 ± 0.28	–	–	–	–
CCN(CC)Cc1cc(Nc2c3ccccc3nc3ccccc23)ccc1O [Compound 6, 4-(9-acridinylamino)-2-[(diethylamino)methyl]phenol]	–	1.64 ± 0.22	–	–	–	–
CC(C)N(C)Cc1cc(Nc2ccnc3cc(Cl)ccc23)ccc1O [Compound 8, 4-(7-chloroquinolin-4-ylamino)-2-(isopropylmethylamino)methylphenol]	–	1.46 ± 0.14	–	39.2	27	1.46
CC(C)(C)NCc1cc(Nc2ccnc3cc(Cl)ccc23)ccc1O [Compound 9, 4-(7-chloroquinolin-4-ylamino)-2-tert-butylaminomethylphenol]	–	1.21 ± 0.09	–	26.1	22	1.21
CN(C)Cc1cc(Nc2ccnc3cc(Cl)ccc23)ccc1O [Compound 10, 4-(7-chloroquinolin-4-ylamino)-2-dimethylaminomethylphenol]	–	2.14 ± 0.21	–	–	–	–
CCN(Cc1cc(Nc2ccnc3cc(Cl)ccc23)ccc1O)C(C)C [Compound 11, 4-(7-chloroquinolin-4-ylamino)-2-(ethylisopropylamino)methylphenol]	–	1.46 ± 0.15	–	60.5	41	1.46
CCN(CC)Cc1cc(Nc2ccnc3ccccc23)ccc1O [Compound 12, 2-[(diethylamino)methyl]-4-(quinolin-4-ylamino)phenol]	–	2.14 ± 0.18	–	–	–	–
CN1CCN(Cc2cc(Nc3ccnc4cc(Cl)ccc34)ccc2O)CC1 [Compound 13, 4-(7-chloroquinolin-4-ylamino)-2-(4-methyl-1-piperazinyl)methylphenol]	did not decrease potency	1.68 ± 0.19	–	–	–	–
CCCN(C)Cc1cc(Nc2ccnc3cc(Cl)ccc23)ccc1O [Compound 14, 4-(7-chloroquinolin-4-ylamino)-2-(methylpropylamino)methylphenol]	–	1.22 ± 0.11	–	> 100	>82	1.22
CN(Cc1cc(Nc2ccnc3cc(Cl)ccc23)ccc1O)C(C)(C)C [Compound 15, 4-(7-chloroquinolin-4-ylamino)-2-(tert-butylmethylamino)methylphenol]	–	1.28 ± 0.07	–	41.8	33	1.28
CCN(C)Cc1cc(Nc2ccnc3cc(Cl)ccc23)ccc1O [Compound 16, 4-(7-chloroquinolin-4-ylamino)-2-(ethylmethylamino)methylphenol]	–	2.08 ± 0.22	–	–	–	–
CCN(CCO)Cc1cc(Nc2ccnc3cc(Cl)ccc23)ccc1O [Compound 17, 4-(7-chloroquinolin-4-ylamino)-2-[ethyl(2-hydroxyethyl)amino]methylphenol]	did not decrease potency	1.77 ± 0.18	–	–	–	–
Oc1ccc(Nc2ccnc3cc(Cl)ccc23)cc1CN1CCCC(O)C1 (stereo not drawn) [Compound 19, 4-(7-chloroquinolin-4-ylamino)-2-(3-hydroxy-1-piperidinyl)methylphenol]	did not decrease potency	1.8 ± 0.28	–	–	–	–
CCN(CC)Cc1cc(Nc2ccnc3cc(Cl)ccc23)cc(-c2ccc(Cl)cc2)c1O [Compound 20, 6-(4-chlorophenyl)-4-(7-chloroquinolin-4-ylamino)-2-diethylaminomethylphenol]	–	1.31 ± 0.1	1.6	19.5	15	1.31
Oc1ccc(Nc2ccnc3cc(Cl)ccc23)cc1CN1CCCC1 [Compound 21, 4-(7-chloroquinolin-4-ylamino)-2-pyrrolidinylmethylphenol]	–	1.09	–	33.2	30	1.09
Oc1ccc(Nc2ccnc3cc(Cl)ccc23)cc1CN1CC[C@@H](O)C1 [Compound 22]	did not decrease potency	1.73 ± 0.09	–	–	–	–

SMILES	antiviral activity / potency in words [1]	IC50 ([1]; Huh-7, 24 h) [µM]	fold potency relative to amodiaquine [1] [fold]	CC50 at 24 h [2] [µM]	Selectivity index [1]	IC50 ([1]; Huh-7) [µM]
CCCCCCNCc1cc(Nc2ccnc3cc(Cl)ccc23)ccc1O [Compound 23, 4-(7-chloroquinolin-4-ylamino)-2-hexylaminomethylphenol]	–	0.29 ± 0.03	–	5.18	18	0.29
Oc1ccc(Nc2ccnc3cc(Cl)ccc23)cc1CN1CCOCC1 [Compound 24]	–	6.03 ± 0.41	–	–	–	–
CCCCN(C)Cc1cc(Nc2ccnc3cc(Cl)ccc23)ccc1O [Compound 25, 4-(7-chloroquinolin-4-ylamino)-2-(butylmethylamino)methylphenol]	–	0.86 ± 0.08	–	65.9	77	0.86
CCCN(CCC)Cc1cc(Nc2ccnc3cc(Cl)ccc23)ccc1O [Compound 26, 4-(7-chloroquinolin-4-ylamino)-2-dipropylaminomethylphenol]	–	0.94 ± 0.08	–	> 100	>106	0.94
C=CCN(CC=C)Cc1cc(Nc2ccnc3cc(Cl)ccc23)ccc1O [Compound 27, 4-(7-chloroquinolin-4-ylamino)-2-bis(2-propen-1-yl)aminomethylphenol]	–	2.32 ± 0.32	–	–	–	–
CCCN(CC)Cc1cc(Nc2ccnc3cc(Cl)ccc23)ccc1O [Compound 29, 4-(7-chloroquinolin-4-ylamino)-2-(ethylpropylamino)methylphenol]	–	1.39 ± 0.13	–	> 100	>72	1.39
CN(C)Cc1cc(Nc2ccnc3cc(I)ccc23)ccc1O [Compound 30, 4-(7-iodoquinolin-4-ylamino)-2-dimethylaminomethylphenol]	–	0.69 ± 0.08	–	> 100	>145	0.69
CCN(C)Cc1cc(Nc2ccnc3cc(I)ccc23)ccc1O [Compound 31, 4-(7-iodoquinolin-4-ylamino)-2-ethylmethylaminomethylphenol]	–	0.62 ± 0.06	–	> 100	>161	0.62
CC(C)N(C)Cc1cc(Nc2ccnc3cc(I)ccc23)ccc1O [Compound 32, 4-(7-iodoquinolin-4-ylamino)-2-isopropylmethylaminomethylphenol]	–	0.29 ± 0.04	–	38.4	132	0.29
CN(Cc1cc(Nc2ccnc3cc(I)ccc23)ccc1O)C(C)(C)C [Compound 33, 4-(7-iodoquinolin-4-ylamino)-2-tert-butylmethylaminomethylphenol]	–	0.3 ± 0.04	–	32.3	108	0.3
CCCN(C)Cc1cc(Nc2ccnc3cc(I)ccc23)ccc1O [Compound 34, 4-(7-iodoquinolin-4-ylamino)-2-methylpropylaminomethylphenol]	–	0.43 ± 0.06	–	> 100	>233	0.43
CCCCN(C)Cc1cc(Nc2ccnc3cc(I)ccc23)ccc1O [Compound 35, 4-(7-iodoquinolin-4-ylamino)-2-butylmethylaminomethylphenol]	–	0.44 ± 0.04	–	66.1	150	0.44
CCCCCN(C)Cc1cc(Nc2ccnc3cc(I)ccc23)ccc1O [Compound 36, 4-(7-iodoquinolin-4-ylamino)-2-methylpentylaminomethylphenol]	–	0.37 ± 0.04	–	> 100	>270	0.37
CCCCCCN(C)Cc1cc(Nc2ccnc3cc(I)ccc23)ccc1O [Compound 37, 4-(7-iodoquinolin-4-ylamino)-2-hexylmethylaminomethylphenol]	–	0.39 ± 0.02	–	> 100	>256	0.39
CCCCCCCCN(C)Cc1cc(Nc2ccnc3cc(I)ccc23)ccc1O [Compound 38, 4-(7-iodoquinolin-4-ylamino)-2-methyloctylaminomethylphenol]	–	0.26 ± 0.06	–	> 100	>385	0.26
CCN(CCO)Cc1cc(Nc2ccnc3cc(I)ccc23)ccc1O [Compound 39, 4-(7-iodoquinolin-4-ylamino)-2-ethyl(2-hydroxyethyl)aminomethylphenol]	–	0.41 ± 0.05	–	> 100	>244	0.41
CCCN(CC)Cc1cc(Nc2ccnc3cc(I)ccc23)ccc1O [Compound 40, 4-(7-iodoquinolin-4-ylamino)-2-ethylpropylaminomethylphenol]	–	0.36 ± 0.04	–	> 100	>278	0.36
CCCCN(CC)Cc1cc(Nc2ccnc3cc(I)ccc23)ccc1O [Compound 41, 4-(7-iodoquinolin-4-ylamino)-2-ethylbutylaminomethylphenol]	–	0.41 ± 0.04	–	60.4	147	0.41
Oc1ccc(Nc2ccnc3cc(I)ccc23)cc1CN1CCCC1 [Compound 42, 4-(7-iodoquinolin-4-ylamino)-2-(1-pyrrolidinylmethyl)phenol]	–	0.66 ± 0.05	–	35.3	54	0.66
